pIC50: −log10 of the molar value. Read-outs that look alike come from different tables or passages of the source.
How the values were obtained:
ovine COX-1 = target: T1, ovine COX-1 (Ovis aries, UniProt P05979); assay: In vitro purified COX-1 inhibition assay (TLC, 14C-arachidonic acid); type: biochemical
T1 sequence (P05979 25-600): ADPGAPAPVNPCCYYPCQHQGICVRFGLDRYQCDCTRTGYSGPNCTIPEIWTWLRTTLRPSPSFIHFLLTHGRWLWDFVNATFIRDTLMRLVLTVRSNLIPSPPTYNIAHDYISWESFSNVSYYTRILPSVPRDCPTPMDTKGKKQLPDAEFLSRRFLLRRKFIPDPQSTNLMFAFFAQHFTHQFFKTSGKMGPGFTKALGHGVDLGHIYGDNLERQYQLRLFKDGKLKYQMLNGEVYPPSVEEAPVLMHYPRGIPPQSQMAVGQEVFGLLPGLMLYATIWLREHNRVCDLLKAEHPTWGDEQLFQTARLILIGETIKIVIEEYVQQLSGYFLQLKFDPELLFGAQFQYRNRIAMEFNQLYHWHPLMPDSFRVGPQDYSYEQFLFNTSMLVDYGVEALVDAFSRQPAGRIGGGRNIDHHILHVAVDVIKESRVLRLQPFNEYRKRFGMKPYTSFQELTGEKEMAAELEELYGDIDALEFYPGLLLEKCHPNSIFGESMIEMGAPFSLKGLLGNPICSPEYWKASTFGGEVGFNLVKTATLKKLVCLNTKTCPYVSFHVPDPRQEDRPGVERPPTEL
Description: The in vitro cyclooxygenase (ovine COX-1 or human COX-2) inhibitory activities of these probes were tested by a previously described TLC assay (FIGS. 19-21). Briefly, reaction mixtures of 200 μL consisted of hematin-reconstituted protein in 100 mM Tris-HCl, pH 8.0, 500 μM phenol, and [1-^14C]arachidonic acid (50 μM, about 55-57 mCi/mmol, Perkin Elmer).
Inhibition Assay Using Purified COX-1 and COX-2. Inhibition of purified ovine COX-1 or mouse COX-2 by test compounds was assayed by a previously described method, which quantifies the conversion of [1-^14C]arachidonic acid to [1-^14C]prostaglandin products. Reaction mixtures of 200 ∝L consisted of hematin-reconstituted protein in 100 mM Tris-HCl, pH 8.0, 500 μM phenol, and [1-^14C]arachidonic acid (50 μM, ˜55-57 mCi/mmol, Perkin Elmer). […] Reactions were terminated by solvent extraction in diethyl ether:methanol:1 M citrate buffer, pH 4.0 (30:4:1). The phases were separated by centrifugation at 2000 g for 2 min, and the organic phase was spotted on a thin-layer chromatography plate (EMD Kieselgel 60, VWR). The plate was developed in ethyl acetate:methylene chloride:glacial AcOH (75:25:1) at 4° C. Radiolabeled products were quantified with a radioactivity scanner (Bioscan, Inc., Washington, D.C.).

hCOX-2 in 1483 cells = target: T2, hCOX-2 in 1483 cells (Homo sapiens, UniProt P35354); assay: Intact cell COX-2 inhibition assay in 1483 HNSCC cells; type: cell-based
T2 construct: cells that express high levels of COX-2 were selected; endogenous in cells; host or cells: 1483 human head and neck squamous cell carcinoma (HNSCC) cells
T2 sequence (P35354 18-604): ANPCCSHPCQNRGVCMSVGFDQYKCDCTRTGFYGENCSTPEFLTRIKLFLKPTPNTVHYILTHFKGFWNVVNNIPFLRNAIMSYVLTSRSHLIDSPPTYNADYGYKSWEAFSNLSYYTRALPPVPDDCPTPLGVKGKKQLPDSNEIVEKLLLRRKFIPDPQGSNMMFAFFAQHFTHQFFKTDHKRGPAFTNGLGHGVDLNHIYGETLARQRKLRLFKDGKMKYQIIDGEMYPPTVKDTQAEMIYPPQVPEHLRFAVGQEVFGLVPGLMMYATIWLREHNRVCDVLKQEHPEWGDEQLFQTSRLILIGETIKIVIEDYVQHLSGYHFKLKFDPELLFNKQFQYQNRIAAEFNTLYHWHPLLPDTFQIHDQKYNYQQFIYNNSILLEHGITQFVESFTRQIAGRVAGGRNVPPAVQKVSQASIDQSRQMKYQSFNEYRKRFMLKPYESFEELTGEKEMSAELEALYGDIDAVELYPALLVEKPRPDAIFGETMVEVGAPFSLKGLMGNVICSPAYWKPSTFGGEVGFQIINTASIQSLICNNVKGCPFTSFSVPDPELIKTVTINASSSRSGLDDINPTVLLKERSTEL
Description: Following the promising results from the purified enzyme assay, the ability of compound 1 to inhibit COX-2 in intact cells was examined using a previously reported method. 1483 human head and neck squamous cell carcinoma (1483 HNSCC) cells that express high levels of COX-2 were selected. […]
Cell Culture and In Vitro Intact Cell Metabolism Assay. Inhibition of COX-2 in intact cells by test compounds was assayed by a previously described method. Human 1483 head and neck squamous cell carcinoma (HNSCC) cells (passage 8-18, mycoplasma negative by a polymerase chain reaction detection method) were cultured in DMEM/F12+10% fetal bovine serum+Antibiotic/Antimycotic in 6-well plates to 60% confluence. […] Reactions were terminated and analyzed by thin layer chromatography as described above.

[1] = test system: COX-2 expressing 1483 tumors; assay: In vivo imaging of nude mice with 1483 xenografts; details: 1 mg/kg intraperitoneal, nude mice 1483 xenografts
Description: The specificity of probe 1 was also evaluated by targeting COX-2 in human tumor xenografts. Nude mice bearing 1483 xenograft tumors on the left flank were dosed by intraperitoneal injection with 1 mg/kg fluorocoxib A or compound 1 (FIG. 25). […] However, signal was detected in the COX-2 expressing 1483 tumors of mice dosed with compound 1 starting at 24 h. Maximum fluorescence is detectable in the tumor at 48 h post-injection of probe 1 (FIGS. 27A-C).
Establishment of xenograft tumors in nude mice. Human 1483 HNSCC cells and HCT116 colorectal carcinoma cells were used to grow tumor xenografts in nude mice using a previously described method. Female nude mice, NU-Foxlnu, were purchased at 6-7 weeks of age from Charles River Labs. Human 1483 HNSCC cells were trypsinized and resuspended in cold PBS containing 30% Matrigel such that 1×10^6 cells in 100 μl were injected subcutaneously on the left flank and grew for 2-3 weeks.
In vivo imaging of nude mice with xenografts. Fluorescence imaging of tumors by test compounds was performed by a previously described method. Female nude mice bearing medium-sized 1483 xenograft tumors on the left flank were dosed by intraperitoneal injection with 1 mg/kg compound 1. The animals were lightly anesthetized with 2% isoflurane for fluorescence imaging in the Xenogen IVIS 200 with the DSRed filter at 1.5 cm depth and 1 sec exposure (f2).

COc1ccc2c(c1)c(CC(=O)NCCCCNC(=O)c1ccc(C3=c4cc5c6c(c4Oc4c3cc3c7c4CCCN7CCC3)CCC[N+]=6CCC5)c(C(=O)NC3CC(C)(C)N([O])C(C)(C)C3)c1)c(C)n2C(=O)c1ccc(Cl)cc1 [Compound 1]
pIC50 (ovine COX-1): < 4.60
pIC50 (hCOX-2 in 1483 cells; COX-2 IC50 in intact cells, 1483 HNSCC cells, compound 30 min 37° C., then [1-14C]-arachidonic acid 10 μM 20 min): 6.55
pIC50 (hCOX-2 in 1483 cells; hCOX-2 IC50, 1483 cells, 8 μM 14C-AA, 30 min at 37° C.): 6.55
time post-injection at which tumor signal starts to be detected [1]: 24 h
time post-injection of maximum tumor fluorescence [1]: 48 h

COc1ccc2c(c1)c(CC(=O)NCCCCNC(=O)c1ccc(C3=c4cc5c6c(c4Oc4c3cc3c7c4CCCN7CCC3)CCC[N+]=6CCC5)c(C(=O)[O-])c1)c(C)n2C(=O)c1ccc(Cl)cc1 [Fluorocoxib A, reference compound]
pIC50 (ovine COX-1; high throughput screening of fluorocoxib and chemocoxib libraries, read-out: purified COX-1 IC50): < 4.60
pIC50 (ovine COX-1; purified ovine COX-1 (22.5 nM), inhibitor 20 min, then 1-14C-AA (50 μM) 37° C. 30 s, duplicates, read-out: oCOX-1 IC50): < 4.60
pIC50 (hCOX-2 in 1483 cells; high throughput screening, intact cancer cells, read-out: COX-2 positive 1483 HNSCC cells IC50): 6.52
fluorescence in the tumor ([1]; 3 h post-injection): fluorescence was observed in the tumor

— patent US10792377B2, “Compounds and method for imaging cancer” (Vanderbilt University, priority 2017, dated 2020)
